Assay results: article PMC6095594, “Pre-clinical evaluation of quinoxaline-derived chalcones in tuberculosis” (PLoS ONE, 2018)
In brackets after ≈: the same amount, converted by molar mass.

What was measured:
S. typhimurium TA1535 = assay: Salmonella/microsome mutagenicity test
Method: (§1) Salmonella typhimurium strains TA98, TA97a, TA100, TA1535, and TA102 were provided by MOLTOX® (Molecular Toxicology Inc. USA). Mutagenicity was assayed according to the pre-incubation procedure following the recommendation described in Mortelmans and Zieger (2000). […] Briefly, 100 μL of test bacterial cultures (1–2 x 10^9 cells/mL) were incubated at 37 °C with different concentrations of N9 (10–400 μg/plate) in the presence or absence of S9 mix, for 20 min, without shaking. […] Plates were incubated in the dark at 37 °C for 48 h before counting the revertant colonies. Assays were repeated twice and the plating for each concentration was conducted in triplicate. Data were evaluated by one-way analysis of variance (ANOVA), followed by Dunnett's post-test, using GraphPad Prism 5.0 (GraphPad, San Diego, CA, USA).

S. typhimurium TA100 = assay: Salmonella/microsome mutagenicity test
Method: as §1

[1] = tested on: M. tuberculosis pan-susceptible clinical isolate CDCT-28; assay: microbe, parasite or virus in culture; assay type: cell-based; conditions: Mycobacterium tuberculosis
S. typhimurium TA97a = assay: Salmonella/microsome mutagenicity test
Method: (§2) Salmonella typhimurium strains TA98, TA97a, TA100, TA1535, and TA102 were provided by MOLTOX® (Molecular Toxicology Inc. USA). Mutagenicity was assayed according to the pre-incubation procedure following the recommendation described in Mortelmans and Zieger (2000). […] Briefly, 100 μL of test bacterial cultures (1–2 x 10^9 cells/mL) were incubated at 37 °C with different concentrations of N9 (10–400 μg/plate) in the presence or absence of S9 mix, for 20 min, without shaking. […] 2-aminoanthracene (2-AA, 5 μg/plate) was used as positive control for all strains in the presence of metabolic activation (with S9 mix). […] Plates were incubated in the dark at 37 °C for 48 h before counting the revertant colonies. Assays were repeated twice and the plating for each concentration was conducted in triplicate. Data were evaluated by one-way analysis of variance (ANOVA), followed by Dunnett's post-test, using GraphPad Prism 5.0 (GraphPad, San Diego, CA, USA).

S. typhimurium TA102 = assay: Salmonella/microsome mutagenicity test
Method: as §2

S. typhimurium TA98 = assay: Salmonella/microsome mutagenicity test
Method: as §2

CYP2C9 = CYP2C9 (Homo sapiens, UniProt P11712); conditions: human liver microsomes
Chain of CYP2C9 (P11712 whole entry): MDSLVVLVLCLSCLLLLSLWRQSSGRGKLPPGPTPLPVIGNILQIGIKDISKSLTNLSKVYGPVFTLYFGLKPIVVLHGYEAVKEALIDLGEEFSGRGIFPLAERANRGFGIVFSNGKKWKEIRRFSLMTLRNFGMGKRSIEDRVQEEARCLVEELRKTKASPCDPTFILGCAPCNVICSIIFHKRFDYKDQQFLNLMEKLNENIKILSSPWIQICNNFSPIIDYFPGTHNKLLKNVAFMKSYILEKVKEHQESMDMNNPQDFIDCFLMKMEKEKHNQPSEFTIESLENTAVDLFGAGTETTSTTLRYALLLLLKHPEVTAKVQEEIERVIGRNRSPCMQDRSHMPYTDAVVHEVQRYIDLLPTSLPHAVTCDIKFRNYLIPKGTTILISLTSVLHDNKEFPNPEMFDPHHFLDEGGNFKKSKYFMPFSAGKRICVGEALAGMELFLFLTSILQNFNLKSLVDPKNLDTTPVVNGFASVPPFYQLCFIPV

CYP2C19 = CYP2C19 (Homo sapiens, UniProt P33261); conditions: human liver microsomes, CYP2C19, N9 0.01–100 μmol L^-1
Chain of CYP2C19 (P33261 whole entry): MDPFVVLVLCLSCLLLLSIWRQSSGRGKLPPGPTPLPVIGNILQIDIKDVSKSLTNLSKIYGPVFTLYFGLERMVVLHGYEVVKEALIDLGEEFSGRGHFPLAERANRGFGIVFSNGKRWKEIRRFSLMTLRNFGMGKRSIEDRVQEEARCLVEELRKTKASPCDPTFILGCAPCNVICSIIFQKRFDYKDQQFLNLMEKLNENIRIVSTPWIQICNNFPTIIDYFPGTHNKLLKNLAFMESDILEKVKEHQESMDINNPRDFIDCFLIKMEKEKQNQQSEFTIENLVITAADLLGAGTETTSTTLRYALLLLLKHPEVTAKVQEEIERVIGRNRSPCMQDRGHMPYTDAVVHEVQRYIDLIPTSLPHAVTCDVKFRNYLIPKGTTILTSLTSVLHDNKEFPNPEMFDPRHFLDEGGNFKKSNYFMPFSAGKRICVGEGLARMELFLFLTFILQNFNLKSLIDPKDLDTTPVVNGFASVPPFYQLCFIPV

[2] = tested on: M. tuberculosis pNIP::KatG(WT); assay: microbe, parasite or virus in culture; assay type: cell-based; conditions: Mycobacterium tuberculosis
CYP2D6 = CYP2D6 (Homo sapiens, UniProt P10635); conditions: human liver microsomes, CYP2D6, N9 0.01–100 μmol L^-1
Chain of CYP2D6 (P10635 whole entry): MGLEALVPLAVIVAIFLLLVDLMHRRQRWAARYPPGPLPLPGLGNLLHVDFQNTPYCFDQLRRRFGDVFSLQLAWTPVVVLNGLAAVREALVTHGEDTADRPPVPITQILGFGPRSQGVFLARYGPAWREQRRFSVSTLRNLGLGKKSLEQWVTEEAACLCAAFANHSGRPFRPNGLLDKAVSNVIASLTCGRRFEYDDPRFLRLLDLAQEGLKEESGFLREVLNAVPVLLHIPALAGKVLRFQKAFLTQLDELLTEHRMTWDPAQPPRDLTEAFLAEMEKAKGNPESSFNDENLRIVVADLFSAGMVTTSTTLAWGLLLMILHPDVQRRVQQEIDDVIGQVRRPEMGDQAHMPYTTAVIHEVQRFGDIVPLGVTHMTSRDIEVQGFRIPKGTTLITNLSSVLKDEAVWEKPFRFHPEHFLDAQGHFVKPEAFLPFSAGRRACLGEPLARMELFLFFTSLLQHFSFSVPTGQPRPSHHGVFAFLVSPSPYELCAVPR

COc1ccc(OC)c(C(=O)/C=C/c2ccc3nccnc3c2)c1 [N9]
MI: mutagenic index (S. typhimurium TA1535; TA1535, +S9, 10 μg/plate): 1.16
Number of revertants/plate (S. typhimurium TA1535; TA1535, +S9, 10 μg/plate): 9.7±1.2 Rev/plate
MI: mutagenic index (S. typhimurium TA1535; TA1535, +S9, 50 μg/plate): 1.24
Number of revertants/plate (S. typhimurium TA1535; TA1535, +S9, 50 μg/plate): 10.3±2.5 Rev/plate
MI: mutagenic index (S. typhimurium TA1535; TA1535, +S9, 100 μg/plate): 1.00
Number of revertants/plate (S. typhimurium TA1535; TA1535, +S9, 100 μg/plate): 8.3±4.9 Rev/plate
MI: mutagenic index (S. typhimurium TA1535; TA1535, +S9, 200 μg/plate): 1.04
Number of revertants/plate (S. typhimurium TA1535; TA1535, +S9, 200 μg/plate): 8.7±1.2 Rev/plate
MI: mutagenic index (S. typhimurium TA1535; TA1535, +S9, 400 μg/plate): 0.68
Number of revertants/plate (S. typhimurium TA1535; TA1535, +S9, 400 μg/plate): 5.7±1.2 Rev/plate
MI: mutagenic index (S. typhimurium TA1535; TA1535, -S9, 10 μg/plate): 1.03
Number of revertants/plate (S. typhimurium TA1535; TA1535, -S9, 10 μg/plate): 11.7±0.6 Rev/plate
MI: mutagenic index (S. typhimurium TA1535; TA1535, -S9, 50 μg/plate): 0.82
Number of revertants/plate (S. typhimurium TA1535; TA1535, -S9, 50 μg/plate): 9.3±0.6 Rev/plate
MI: mutagenic index (S. typhimurium TA1535; TA1535, -S9, 100 μg/plate): 1.03
Number of revertants/plate (S. typhimurium TA1535; TA1535, -S9, 100 μg/plate): 11.7±5.9 Rev/plate
MI: mutagenic index (S. typhimurium TA1535; TA1535, -S9, 200 μg/plate): 1.18
Number of revertants/plate (S. typhimurium TA1535; TA1535, -S9, 200 μg/plate): 13.3±4.0 Rev/plate
MI: mutagenic index (S. typhimurium TA1535; TA1535, -S9, 400 μg/plate): 1.24
Number of revertants/plate (S. typhimurium TA1535; TA1535, -S9, 400 μg/plate): 14.0±3.6 Rev/plate
MI: mutagenic index (S. typhimurium TA100; TA100, +S9, 10 μg/plate): 0.94
Number of revertants/plate (S. typhimurium TA100; TA100, +S9, 10 μg/plate): 108.7±15.2 Rev/plate
MI: mutagenic index (S. typhimurium TA100; TA100, +S9, 50 μg/plate): 1.13
Number of revertants/plate (S. typhimurium TA100; TA100, +S9, 50 μg/plate): 130.7±10.7 Rev/plate
MI: mutagenic index (S. typhimurium TA100; TA100, +S9, 100 μg/plate): 0.97
Number of revertants/plate (S. typhimurium TA100; TA100, +S9, 100 μg/plate): 112.7±15.5 Rev/plate
MI: mutagenic index (S. typhimurium TA100; TA100, +S9, 200 μg/plate): 0.95
Number of revertants/plate (S. typhimurium TA100; TA100, +S9, 200 μg/plate): 110.0±11.8 Rev/plate
MI: mutagenic index (S. typhimurium TA100; TA100, +S9, 400 μg/plate): 0.97
Number of revertants/plate (S. typhimurium TA100; TA100, +S9, 400 μg/plate): 112.0±13.9 Rev/plate
MI: mutagenic index (S. typhimurium TA100; TA100, -S9, 10 μg/plate): 1.08
Number of revertants/plate (S. typhimurium TA100; TA100, -S9, 10 μg/plate): 125.0±10.5 Rev/plate
MI: mutagenic index (S. typhimurium TA100; TA100, -S9, 50 μg/plate): 0.88
Number of revertants/plate (S. typhimurium TA100; TA100, -S9, 50 μg/plate): 101.0±12.5 Rev/plate
MI: mutagenic index (S. typhimurium TA100; TA100, -S9, 100 μg/plate): 0.84
Number of revertants/plate (S. typhimurium TA100; TA100, -S9, 100 μg/plate): 97.0±20.1 Rev/plate
MI: mutagenic index (S. typhimurium TA100; TA100, -S9, 200 μg/plate): 0.95
Number of revertants/plate (S. typhimurium TA100; TA100, -S9, 200 μg/plate): 109.7±7.8 Rev/plate
MI: mutagenic index (S. typhimurium TA100; TA100, -S9, 400 μg/plate): 0.84
Number of revertants/plate (S. typhimurium TA100; TA100, -S9, 400 μg/plate): 96.7±9.3 Rev/plate
MIC [1]: 1.56 µg/mL (≈ 4.87 µM)
MI: mutagenic index (S. typhimurium TA97a; +S9, 10 μg/plate): 1.11
Number of revertants/plate (S. typhimurium TA97a; +S9, 10 μg/plate): 128.0±12.1 Rev/plate
MI: mutagenic index (S. typhimurium TA97a; +S9, 50 μg/plate): 0.92
Number of revertants/plate (S. typhimurium TA97a; +S9, 50 μg/plate): 106.0±14.2 Rev/plate
MI: mutagenic index (S. typhimurium TA97a; +S9, 100 μg/plate): 0.98
Number of revertants/plate (S. typhimurium TA97a; +S9, 100 μg/plate): 113.5±5.0 Rev/plate
MI: mutagenic index (S. typhimurium TA97a; +S9, 200 μg/plate): 0.71
Number of revertants/plate (S. typhimurium TA97a; +S9, 200 μg/plate): 82.0±1.0 Rev/plate
MI: mutagenic index (S. typhimurium TA97a; +S9, 400 μg/plate): 0.90
Number of revertants/plate (S. typhimurium TA97a; +S9, 400 μg/plate): 104.0±28.8 Rev/plate
MI: mutagenic index (S. typhimurium TA97a; -S9, 10 μg/plate): 1.14
Number of revertants/plate (S. typhimurium TA97a; -S9, 10 μg/plate): 145.7±20.3 Rev/plate
MI: mutagenic index (S. typhimurium TA97a; -S9, 50 μg/plate): 0.98
Number of revertants/plate (S. typhimurium TA97a; -S9, 50 μg/plate): 125.0±12.5 Rev/plate
MI: mutagenic index (S. typhimurium TA97a; -S9, 100 μg/plate): 0.93
Number of revertants/plate (S. typhimurium TA97a; -S9, 100 μg/plate): 118.0±8.2 Rev/plate
MI: mutagenic index (S. typhimurium TA97a; -S9, 200 μg/plate): 0.98
Number of revertants/plate (S. typhimurium TA97a; -S9, 200 μg/plate): 124.3±13.3 Rev/plate
MI: mutagenic index (S. typhimurium TA97a; -S9, 400 μg/plate): 1.05
Number of revertants/plate (S. typhimurium TA97a; -S9, 400 μg/plate): 134.0±3.6 Rev/plate
MI: mutagenic index (S. typhimurium TA102; TA102, +S9, 10 μg/plate): 1.01
Number of revertants/plate (S. typhimurium TA102; TA102, +S9, 10 μg/plate): 376.3±29.0 Rev/plate
MI: mutagenic index (S. typhimurium TA102; TA102, +S9, 50 μg/plate): 0.96
Number of revertants/plate (S. typhimurium TA102; TA102, +S9, 50 μg/plate): 358.0±49.1 Rev/plate
MI: mutagenic index (S. typhimurium TA102; TA102, +S9, 100 μg/plate): 0.99
Number of revertants/plate (S. typhimurium TA102; TA102, +S9, 100 μg/plate): 368.7±12.7 Rev/plate
MI: mutagenic index (S. typhimurium TA102; TA102, +S9, 200 μg/plate): 1.02
Number of revertants/plate (S. typhimurium TA102; TA102, +S9, 200 μg/plate): 382.0±58.2 Rev/plate
MI: mutagenic index (S. typhimurium TA102; TA102, +S9, 400 μg/plate): 0.99
Number of revertants/plate (S. typhimurium TA102; TA102, +S9, 400 μg/plate): 371.0±23.6 Rev/plate
MI: mutagenic index (S. typhimurium TA102; TA102, -S9, 10 μg/plate): 0.75
Number of revertants/plate (S. typhimurium TA102; TA102, -S9, 10 μg/plate): 254.3±47.1 Rev/plate
MI: mutagenic index (S. typhimurium TA102; TA102, -S9, 50 μg/plate): 0.89
Number of revertants/plate (S. typhimurium TA102; TA102, -S9, 50 μg/plate): 299.3±50.6 Rev/plate
MI: mutagenic index (S. typhimurium TA102; TA102, -S9, 100 μg/plate): 1.01
Number of revertants/plate (S. typhimurium TA102; TA102, -S9, 100 μg/plate): 341.3±16.8 Rev/plate
MI: mutagenic index (S. typhimurium TA102; TA102, -S9, 200 μg/plate): 0.96
Number of revertants/plate (S. typhimurium TA102; TA102, -S9, 200 μg/plate): 324.3±4.2 Rev/plate
MI: mutagenic index (S. typhimurium TA102; TA102, -S9, 400 μg/plate): 0.95
Number of revertants/plate (S. typhimurium TA102; TA102, -S9, 400 μg/plate): 321.0±27.4 Rev/plate
MI: mutagenic index (S. typhimurium TA98; TA98, +S9, 10 μg/plate): 1.09
Number of revertants/plate (S. typhimurium TA98; TA98, +S9, 10 μg/plate): 43.7±4.7 Rev/plate
MI: mutagenic index (S. typhimurium TA98; TA98, +S9, 50 μg/plate): 0.80
Number of revertants/plate (S. typhimurium TA98; TA98, +S9, 50 μg/plate): 32.0±7.8 Rev/plate
MI: mutagenic index (S. typhimurium TA98; TA98, +S9, 100 μg/plate): 0.94
Number of revertants/plate (S. typhimurium TA98; TA98, +S9, 100 μg/plate): 37.7±5.7 Rev/plate
MI: mutagenic index (S. typhimurium TA98; TA98, +S9, 200 μg/plate): 1.05
Number of revertants/plate (S. typhimurium TA98; TA98, +S9, 200 μg/plate): 42.0±5.6 Rev/plate
MI: mutagenic index (S. typhimurium TA98; TA98, +S9, 400 μg/plate): 1.06
Number of revertants/plate (S. typhimurium TA98; TA98, +S9, 400 μg/plate): 42.3±6.7 Rev/plate
MI: mutagenic index (S. typhimurium TA98; TA98, -S9, 10 μg/plate): 0.83
Number of revertants/plate (S. typhimurium TA98; TA98, -S9, 10 μg/plate): 28.3±7.6 Rev/plate
MI: mutagenic index (S. typhimurium TA98; TA98, -S9, 50 μg/plate): 0.73
Number of revertants/plate (S. typhimurium TA98; TA98, -S9, 50 μg/plate): 25.0±6.1 Rev/plate
MI: mutagenic index (S. typhimurium TA98; TA98, -S9, 100 μg/plate): 0.81
Number of revertants/plate (S. typhimurium TA98; TA98, -S9, 100 μg/plate): 27.7±4.0 Rev/plate
MI: mutagenic index (S. typhimurium TA98; TA98, -S9, 200 μg/plate): 0.89
Number of revertants/plate (S. typhimurium TA98; TA98, -S9, 200 μg/plate): 30.5±2.1 Rev/plate
MI: mutagenic index (S. typhimurium TA98; TA98, -S9, 400 μg/plate): 1.24
Number of revertants/plate (S. typhimurium TA98; TA98, -S9, 400 μg/plate): 42.5±15.8 Rev/plate
Inhibitory potential (CYP2C9): weak inhibitory potential
percentage of remaining enzyme activity (CYP2C19): approximately 100%
MIC [2]: 3.13 µg/mL (≈ 9.77 µM)
percentage of remaining enzyme activity (CYP2D6): approximately 100%
